Earlier results as cited in patent US8030335B2, “Use of liver X receptor agonists” (Laboratoires Fournier S.A., priority 2005, dated 2011).

What was measured:
db/db mice = details: cited from earlier work
[1] = test system: pancreatic islets or insulin-secreting MIN6 cells; details: culture with compound, cited from earlier work

Structure (SMILES): O=S(=O)(c1ccccc1)N(CC(F)(F)F)c1ccc(C(O)(C(F)(F)F)C(F)(F)F)cc1 [T0901317]
- plasma glucose level (db/db mice; db/db mice (not in normal mice)): lower plasma glucose level
- expression of PEPCK (db/db mice; limits hepatic glucose output): inhibits
- islet insulin content [1]: increase
- glucose-dependent insulin secretion ([1]; effect only after >72 h of islet culture): increase
